Reference: ChEMBL document CHEMBL4350979, “Dehydrodieugenol B derivatives as antiparasitic agents: Synthesis and biological activity against Trypanosoma cruzi” (Eur J Med Chem, 2019)
Active and inactive are the calls of the source. The calls are words filed in the database; no cut-off is given here. Square brackets hold non-standard residues; d marks the D form. Peptide text beside a SMILES is read from it. * marks the point of attachment. NHCH2CH2OH = OCCN*; For = O=C*

Tests used:
[1] = Cytotoxicity against mouse NCTC-929 cells assessed as reduction in cell viability incubated for 48 hrs by MTT assay; type: cell-based; settings: NCTC-929 (L929) cells
Trypanosoma cruzi [2] = test: Antitrypanosomal activity against Trypanosoma cruzi strain Y trypomastigotes maintained in Rhesus monkey […] cells assessed as decrease in trypomastigotes cell viability incubated for 24 hrs by resazurin dye based colorimetric assay; type: functional, organism-based
Trypanosoma cruzi [3] = test: Antitrypanosomal activity against Trypanosoma cruzi amastigotes infected in BALB/c mouse peritoneal macrophages assessed as decrease in parasitic load with in the cell incubated for 48 hrs by Giemsa staining based light microscopy; type: functional, organism-based
Trypanosoma cruzi [4] = test: Induction of mitochondrial membrane depolarization in Trypanosoma cruzi strain Y trypomastigotes assessed as reduction in mitochondrial membrane potential at 50 uM measured after 120 mins by JC-1 probe based flow cytometry; type: functional, organism-based
Trypanosoma cruzi [5] = test: Induction of plasma membrane electric potential depolarization in Trypanosoma cruzi strain Y trypomastigotes at 0.5 mg/ml measured after 60 mins by DiSBAC2(3) dye based flow cytometry; type: functional
[6] = Selectivity index, ratio of CC50 for mouse NCTC-929 cells to IC50 for Trypanosoma cruzi amastigotes infected in BA;B/c mouse peritoneal macrophages; type: toxicity; settings: read-out: Ratio CC50/IC50

SMILES	CC50 at 48 h [1] [µM]	IC50 (Trypanosoma cruzi [2]) [µM]	IC50 (Trypanosoma cruzi [3]) [µM]	inhibition (Trypanosoma cruzi [4])	Activity (Trypanosoma cruzi [5]) [%]	selectivity ratio [6]
CCCOc1c(OC)cc(CCC)cc1Oc1ccc(CCC)cc1OC	> 200	> 100	> 30			
COc1cc(CC(C)O)ccc1Oc1cc(CC(C)O)cc(OC)c1OC (stereo unspecified)	> 200	> 100	> 30			
N#CC(C#N)=NNc1cccc(Cl)c1				Active		
CC(C)C[C@@H](NC(=O)[C@H](C)NC(=O)CNC(=O)[C@@H](NC=O)C(C)C)C(=O)N[C@@H](C)C(=O)N[C@@H](C(=O)N[C@H](C(=O)N[C@@H](C(=O)N[C@@H](Cc1c[nH]c2ccccc12)C(=O)N[C@H](CC(C)C)C(=O)N[C@@H](Cc1c[nH]c2ccccc12)C(=O)N[C@H](CC(C)C)C(=O)N[C@@H](Cc1c[nH]c2ccccc12)C(=O)N[C@H](CC(C)C)C(=O)N[C@@H](Cc1c[nH]c2ccccc12)C(=O)NCCO)C(C)C)C(C)C)C(C)C [GRAMICIDIN D] (For-VGA[dL]A[dV]V[dV]W[dL]W[dL]W[dL]W-NHCH2CH2OH)					100	
O=C(Cn1ccnc1[N+](=O)[O-])NCc1ccccc1 [BENZNIDAZOLE]	191	17.7	5			38.1
CCCc1ccc(Oc2cc(CCC)cc(OC)c2OC)c(OC)c1	> 200	> 100	13.3			> 15.4
